Source: US20250346943A1, “DEGRADER COMPOUNDS OF QSOX1 mRNA” (UNIVERSITY OF FLORIDA RESEARCH FOUNDATION, INCORPORATED, priority 2022, published 2025)
“Also recorded” adds a separate entry of the source.

Legend:
QSOX1-a mRNA = QSOX1-a mRNA abundance in RNase L-knockdown (CRISPR-edited) MDA-MB-231 cells; format: cell-based, human; details: CRISPR-edited cells with RNase L knockdown
Description: The CRISPR-edited MDA-MB-231 cell lines used in this study were the same as those previously reported and characterized.^8 Briefly, lentiviral constructs containing Cas9 and gRNA targeting RNase L mRNA (or a scramble control) were purchased (Transomic Tech) and transfected in HEK293T cells (ATCC CRL-11268) to harvest virus. Transduction to MDA-MB-231 cells were performed in the presence of […] polybrene (Millipore, Cat #TR-1003-G) followed by selection with puromycin.
Analysis of mRNA Abundance by RT-qPCR. Unless stated otherwise, all RT-qPCR experiments were performed to measure nascent RNA levels by using Click-it Nascent RNA Capture Kit (Cat #C10365, Thermo Fisher) per the manufacturer's protocols. Briefly, cells were treated with 0.2 mM of ethynyl uridine (EU) in growth medium for 16 h, after which the medium was replaced with fresh growth medium lacking EU. Compound or ASO treatment was performed at the same time of initial EU treatment, and compounds were replenished after replacing the medium to remove EU. Total RNA was extracted by using a Zymo Quick-RNA Miniprep Kit as per manufacturer's protocol with DNase treatment. The click reaction and pull-down of nascent RNA were performed as described in “In Vitro Chemical-Crosslinking and Isolation by Pull-down (Chem-CLIP) with Fluorescently Labeled RNA”. […]

[1] = tested on: wild type (WT) QSOX1 5′ UTR RNA hairpin; experiment: In vitro Chem-CLIP and competitive Chem-CLIP with Cy5-labeled WT RNA; format: binding, human
Description: In Vitro Chemical-Crosslinking and Isolation by Pull-down (Chem-CLIP) with Fluorescently Labeled RNA. Cy5-labeled RNA (100 μL, 2 μM) was folded by heating at 95° C. for 2 min in 1× Folding Buffer and cooled on ice. The RNA was then mixed with F1 at the indicated concentrations. The sample was irradiated with UV light (365 nm) for 15 min and then added to 100 μL of azide-disulfide agarose beads (Click Chemistry Tools, 1238-2) pre-washed with 200 μL of 25 mM HEPES, pH 7.0. A click reaction solution was prepared by mixing 30 μL of 250 mM sodium ascorbate, 30 μL of 10 mM CuSO4, and 30 μL of 50 mM THPTA, which was added to the sample. The sample was incubated while rotating at 37° C. for 2 h, briefly centrifuged, and then the supernatant was decanted. The beads were washed six times with 1× Washing Buffer (10 mM Tris-HCl, pH 7, 4 M NaCl, 1 mM EDTA, and 0.05% (v/v) Tween-20) following by incubation with 1× Releasing Buffer (50 mM TCEP and 100 mM K2CO3) at 37° C. for 30 min. An equivalent of iodoacetamide (200 mM) was added to the sample, which was incubated at 37° C. for an additional 30 min. The sample was briefly centrifuged and supernatant containing RNA was carefully transferred to a clean tube. Cy-5 fluorescence in the supernatant was measured with a Molecular Devices SpectraMax M5 plate reader with an excitation wavelength of 640 nm and an emission wavelength of 680 nm. For competitive Chem-CLIP, F1-RIBOTAC was added to the folded the RNA and incubated at room temperature for 15 min prior to the addition of F1. Pull-down was then completed as described above.

[2] = target: QSOX1 5′UTR hairpin (model of the QSOX1-a binding site); experiment: In vitro binding by fluorescence polarization, Cy5-labeled WT RNA; parameters: species or system human
Description: (§1) In Vitro Binding by Measuring Changes in Fluorescence Polarization. Cy5-labeled RNA was folded by heating at 95° C. for 2 min in 1× Folding Buffer and cooled on ice. Serial dilutions of F1 (200 to 0.4 μM, 1:1 dilutions) were prepared in 1× Folding Buffer with 4% (w/v) bovine serum albumin (BSA) with constant DMSO concentration (2% v/v). The compound solutions (10 μL) were added to a well of non-binding 384-well plate (Corning). An equal volume of folded RNA was adding to each well with a final concentration of 50 nM. The samples were incubated at room temperature for 30 min, and then fluorescence polarization was measured with a Molecular Devices SpectraMax M5 plate reader with an excitation wavelength of 640 nm and an emission wavelength of 680 nm.

MDA-MB-231 cells = experiment: Invasion assay; format: cell-based, human; details: 10 μM, 48 h
Description: Invasion Assay. MDA-MB-231 cells were seeded in […] and treated with compound or transfected by ASO for 48 h as described in Cell Culture. After treatment for 48 h, the medium was replaced with fresh medium that contains same concentration of compound but lacking FBS for 8 h (serum starvation). ThinCert (GBO) 24-well inserts with 8 μm pores were coated with 100 μL of 0.5 mg/mL Matrigel (Fisher Scientific: CB40234) per well, and then cells were added into the insert (50,000 cells per well). Fresh growth medium with FBS was added to a 24-well plate (600 μL each well), and the inserts containing cells were placed on the top, allowing medium to cover the bottom of the insert. After 16 h, all medium was removed, and cells were washed by 1×DPBS twice. Cells were then fixed with 3% (w/v) paraformaldehyde (PFA) in 1×DPBS at room temperature for 30 min, followed by staining with Crystal Violet (10 mg/mL; 4:1H2O:MeOH) at room temperature for 20 min. A cotton swab was used to gently remove non-invasive cells on sitting on top of the Matrigel. The inserts were then imaged under a regular optical microscope (3 views per well), and the number of invasive cells were counted manually.

[3] = tested on: mutant RNA lacking U-bulge (fully paired RNA); experiment: In vitro binding by fluorescence polarization, Cy5-labeled mutant RNA
Description: as §1

Row | Structure (SMILES) | effect on QSOX1-a mRNA in RNase L-knockdown cells (QSOX1-a mRNA) | competition of F1 cross-linking to the QSOX1-a target site (competitive Chem-CLIP) ([1]; constant concentration of F1, increasing competitor) | Kd [2] [µM] | reduction of the number of invasive MDA-MB-231 cells (MDA-MB-231 cells) [%] | binding to fully paired RNA (U bulge converted to AU base pair) [3] | cross-linking / pull-down of WT QSOX1-a 5′ UTR hairpin ([1]; in vitro Chem-CLIP)
1 | CCOC(=O)C1=C(Nc2ccccc2)S/C(=C\c2ccc(OCCOCCOCCOCCNC(=O)CCC(=O)N(C)[C@H]3CC[C@@H](c4ccc(Cl)c(Cl)c4)c4ccccc43)c(O)c2)C1=O [Compound F1-RIBOTAC] | ablated | dose-dependently competed off; also recorded: dose-dependently ablates | 11 ± 5 | ~40 |  | 
2 | C#CCCC1(CCC(=O)N(C)[C@H]2CC[C@@H](c3ccc(Cl)c(Cl)c3)c3ccccc32)N=N1 [Compound F1] |  |  |  |  | no detectable binding | selectively cross-linked; also recorded: significantly pulled down
